Source: patent US20220177511A1, “SERIES OF HALOGENATED TETRACYCLIC TRITERPENE DERIVATIVES AND THEIR PREPARATION AND APPLICATION” (SHANGHAI KING-X BIOTECH CO., LTD, priority 2019, published 2022)
Where two headings read alike, the source gives them in different places.

Experiments:
[1] = Stability test of compound 2 in fresh rat whole blood; format: in vitro ADME; design: half-life: dose or concentration left out as unconfirmed
Procedure: Preparation of the tested product: Compound 2 was dissolved with an appropriate amount of dimethyl sulfoxide (DMSO) to obtain a 400 μM solution.
1) Fresh rat whole blood is added to the EP tube and shaken gently to mix.
2) Pre-incubate the EP tube in a water bath at 37° C. for 5 minutes.
3) Add Compound 2 and incubate at 37° C.
4) Every 50 μL of sample was taken from the sample tube to the stop tube (containing 5 μL internal standard, 5 μg/mL tolbutamide) at 0, 3 min, 6 min, 15 min, 30 min, and 60 min. 150 μL of acetonitrile was added and shaked to stop reaction, which was incubated in PBS system for 0 and 60 min.
5) Centrifuge for 5 min at 4° C. (13000 r/min), aspirate the supernatant, and analyze the sample.
50 μL of rat whole blood was added with 5 μL of internal standard working solution (5 μg/mL tolbutamide). 150 μL of acetonitrile was used to precipitate the proteins. The sample was centrifuged at 13,000 rpm and 4° C. for 5 min. The upper organic phase was taken and filtered with a 0.22 μM microporous membrane, which was then analyzed by LC-MS/MS. […]
The In residual rate of compound 2 in the incubation system was plotted against the incubation time, and the slope k was obtained by linear regression. T1/2 (min) was calculated according to the formula (T1/2=−0.693/k).

[2] = Plasma pharmacokinetics after single intravenous injection in rats; format: in vivo; settings: rat, intravenous 2 mg/kg, Mean ± SD; for concentration at 0.05 h: read-out: C0.05; for MRT inf: read-out: MRT0-∞; for Vd: read-out: Vz
Procedure: Strain: SD rat; Gender: half male and female. Weight: about 200-250 g. Source: Shanghai Slac Laboratory Animal Co., Ltd. Laboratory Animal Production License No.: SOCK (Shanghai) 2017-0005. Laboratory Animal Use License Certificate number: SYXK (Shanghai) 2014-0018. Breeding: constant temperature purification and ventilation animal room, 20-26° C., free food and water, humidity 40-70%, light for 12 h.
Route B: single intravenous injection. Volume: calculated according to 5 mL/kg body weight. Preparation: an appropriate amount of compound 2 is dissolved in 3% total volume of DMSO. 3% total volume of castor oil is added to the solution and mixed by vortexing, an appropriate amount of normal saline is added to form an intravenous drug solution (0.4 mg/mL clear solution).
12 SD rats were divided into 2 groups, 6 rats in each group, […]. Fasting for 12 h before administration, free drinking water. The doses of 10 mg/kg were administered as a single gavage, and the doses of 2 mg/kg were administered as a single intravenous injection. About 100 μL orbital blood was collected before administration, 3 min, 10 min, 20 min, 30 min, 1 h, 2 h, 3 h, 4 h, 6 h, 8 h, 11 h, and 24 h after administration. For intravenous administration, orbital blood was collected before administration, 3 min, 8 min, 15 min, 30 min, 1 h, 2 h, 3 h, 4 h, 6 h, 8 h, 11 h, 24 h after injection. The blood was anticoagulated with 1% heparin, centrifuged at 8000 rpm for 4 min, and the plasma was separated. Store at −20° C. High concentration samples were diluted with blank plasma. 2.1.4 Determination method of plasma samples 2.1.4.1 Instrument (LC-MS/MS)
Liquid chromatography system: Ultimate3000 liquid chromatography system (including Ultimate3000 ternary infusion pump, Ultimate3000 column oven, Ultimate3000 autosampler and Ultimate3000 vacuum degasser), Dionex Corporation. MS/MS system: 4000 Q-Trap tandem mass spectrometer with electrospray ionization source (ESI source), AB Company
Column: Athena C18-WP 100A (2.1×50 mm, 5 μm); Injection volume: 10 μL; Mobile phase: A: acetonitrile; C: 0.05% ammonia, gradient elution (see table below); Flow rate: 0.3 mL/min
The ion source is electrospray ionization source (ESI), the drying gas (N2) temperature is 500° C., the electrospray voltage is −4500 V, the detection method is negative ion detection, the scanning method is the […] (MRM) method and the scanning time is 0.15 s. The mass spectrometry parameters are as follows:
50 μL of rat whole blood was added with 2.5 μL of internal standard working solution (250 ng/mL tolbutamide). 150 μL of acetonitrile was used to precipitate the proteins. The sample was centrifuged at 13,000 rpm and 4° C. for 5 min. The upper organic phase was taken and filtered with a 0.22 μM microporous membrane, which was then analyzed by LC-MS/MS.

## CC(C)(O)[C@@H]1CC[C@](C)([C@H]2[C@@H](O)C[C@@]3(C)[C@@H]4C[C@H](O)[C@H]5C(C)(C)C(F)(F)CC[C@@]56C[C@@]46CC[C@]23C)O1 [Compound 2, (2aR,3R,4S,5aS,5bS,7S,7aR,11aR,12aS)-9,9-difluoro-3-((2R,5S)-5-(2-hydroxypropan-2-yl)-2-methyltetrahydrofuran-2-yl)-2a,5a,8,8-tetramethyltetradecahydro-1H,12H-cyclopenta[a]cyclopropa[e]phenanthrene-4,7-diol]
[1]; fresh rat whole blood, rat whole blood, 37° C., 0-60 min, read-out: In vitro T1/2
  half-life: 640 min
[1]; incubation 3, 6, 15, 30 and 60 min
  stability in rat whole blood: relatively stable
[2]; both sexes, all rats (♂ and ♀)
  AUC0-t: 1590 ± 585 ng·h/mL
  AUC(0-inf): 1660 ± 656 ng·h/mL
  clearance: 23 mL/min/kg
  half-life: 70.8 ± 24.6 min
  concentration at 0.05 h: 1460 ± 232 ng/mL
  MRT inf: 1.55 ± 0.59 h
  Vd: 2.13 ± 0.38 L/kg
[2]; female, rats ♀
  AUC0-t: 2120 ± 114 ng·h/mL
  AUC(0-inf): 2250 ± 206 ng·h/mL
  clearance: 14.9 mL/min/kg
  half-life: 88.2 min
  concentration at 0.05 h: 1390 ± 250 ng/mL
  MRT inf: 2.03 ± 0.41 h
  Vd: 1.86 ± 0.348 L/kg
[2]; male, rats ♂
  AUC0-t: 1060 ± 113 ng·h/mL
  AUC(0-inf): 1080 ± 106 ng·h/mL
  clearance: 31 mL/min/kg
  half-life: 54 min
  concentration at 0.05 h: 1540 ± 233 ng/mL
  MRT inf: 1.07 ± 0.09 h
  Vd: 2.39 ± 0.168 L/kg
